Test results taken from ChEMBL document CHEMBL1144377, “Oximinoarylsulfonamides as potent HIV protease inhibitors” (Bioorg Med Chem Lett, 2005).
pIC50: −log10 of the molar value.

Assays:
[1] = tested on: Human immunodeficiency virus 1; assay: Inhibitory concentration against resistant (A17) human immunodeficiency virus; type: functional, organism-based
[2] = tested on: Human immunodeficiency virus 1; assay: Inhibitory concentration against wild type human immunodeficiency virus; type: functional, organism-based

Compound	pIC50 [1]	pIC50 [2]
CO/N=C\c1ccc(S(=O)(=O)N(CC(C)C)C[C@@H](O)[C@H](Cc2ccccc2)NC(=O)[C@H](C(C)C)N2CCN(Cc3csc(C)n3)C2=O)cc1	5.52	6.19
Cc1nc(CN2CCN([C@H](C(=O)N[C@@H](Cc3ccccc3)[C@H](O)CN(CC(C)C)S(=O)(=O)c3ccc(NC=O)cc3)C(C)C)C2=O)cs1	5.62	6.77
Cc1nc(CN2CCN([C@H](C(=O)N[C@@H](Cc3ccccc3)[C@H](O)CN(CC(C)C)S(=O)(=O)c3ccc(N)cc3)C(C)C)C2=O)cs1	6.51	7.51
Cc1nc(CN2CCN([C@H](C(=O)N[C@@H](Cc3ccccc3)[C@H](O)CN(CC(C)C)S(=O)(=O)c3ccc(C=O)cc3)C(C)C)C2=O)cs1	6.69	7.29
Cc1nc(CN2CCN([C@H](C(=O)N[C@@H](Cc3ccccc3)[C@H](O)CN(CC(C)C)S(=O)(=O)c3cccc(CO)c3)C(C)C)C2=O)cs1	6.04	7.35
Cc1nc(CN2CCN([C@H](C(=O)N[C@@H](Cc3ccccc3)[C@H](O)CN(CC(C)C)S(=O)(=O)c3cccc(/C=N\O)c3)C(C)C)C2=O)cs1	6.65	7.80
Cc1nc(CN2CCN([C@H](C(=O)N[C@@H](Cc3ccccc3)[C@H](O)CN(CC(C)C)S(=O)(=O)c3ccc(C(N)=O)cc3)C(C)C)C2=O)cs1	6.03	6.60
CC(C)CN(C[C@@H](O)[C@H](Cc1ccccc1)NC(=O)O[C@H]1CCOC1)S(=O)(=O)c1ccc(N)cc1	5.43	6.96
CC(C)c1nc(CN(C)C(=O)N[C@H](C(=O)N[C@@H](Cc2ccccc2)C[C@H](O)[C@H](Cc2ccccc2)NC(=O)OCc2cncs2)C(C)C)cs1 [RITONAVIR]	5.46	–
C=Cc1ccc(S(=O)(=O)N(CC(C)C)C[C@@H](O)[C@H](Cc2ccccc2)NC(=O)[C@H](C(C)C)N2CCN(Cc3csc(C)n3)C2=O)cc1	6.02	7.00
Cc1nc(CN2CCN([C@H](C(=O)N[C@@H](Cc3ccccc3)[C@H](O)CN(CC(C)C)S(=O)(=O)c3ccc(C(=N)NO)cc3)C(C)C)C2=O)cs1	6.28	6.84
Cc1nc(CN2CCN([C@H](C(=O)N[C@@H](Cc3ccccc3)[C@H](O)CN(CC(C)C)S(=O)(=O)c3ccc(NS(C)(=O)=O)cc3)C(C)C)C2=O)cs1	5.00	5.92
CC(=O)Nc1ccc(S(=O)(=O)N(CC(C)C)C[C@@H](O)[C@H](Cc2ccccc2)NC(=O)[C@H](C(C)C)N2CCN(Cc3csc(C)n3)C2=O)cc1	5.82	6.51
Cc1nc(CN2CCN([C@H](C(=O)N[C@@H](Cc3ccccc3)[C@H](O)CN(CC(C)C)S(=O)(=O)c3ccc(C#N)cc3)C(C)C)C2=O)cs1	5.93	6.83
Cc1nc(CN2CCN([C@H](C(=O)N[C@@H](Cc3ccccc3)[C@H](O)CN(CC(C)C)S(=O)(=O)c3ccc(C(=O)O)cc3)C(C)C)C2=O)cs1	5.03	5.00
Cc1nc(CN2CCN([C@H](C(=O)N[C@@H](Cc3ccccc3)[C@H](O)CN(CC(C)C)S(=O)(=O)c3ccc(/C=N\O)cc3)C(C)C)C2=O)cs1	7.51	8.30
Cc1cccc(C)c1OCC(=O)N[C@@H](Cc1ccccc1)[C@@H](O)C[C@H](Cc1ccccc1)NC(=O)[C@H](C(C)C)N1CCCNC1=O [LOPINAVIR]	5.91	–
CC(=O)c1ccc(S(=O)(=O)N(CC(C)C)C[C@@H](O)[C@H](Cc2ccccc2)NC(=O)[C@H](C(C)C)N2CCN(Cc3csc(C)n3)C2=O)cc1	6.17	7.41
Cc1nc(CN2CCN([C@H](C(=O)N[C@@H](Cc3ccccc3)[C@H](O)CN(CC(C)C)S(=O)(=O)c3ccc(CO)cc3)C(C)C)C2=O)cs1	7.00	7.21
